We go through one molecule from US10253071B2, “Selectin inhibitors, composition, and uses related thereto” (Beth Israel Deaconess Medical Center, Inc., priority 2014, dated 2019).

pIC50, pKd: −log10 of the molar value. Square brackets hold non-standard residues; d marks the D form. Peptide text beside a SMILES is read from it. * marks the point of attachment. X1 = CC(=O)N[C@@H]1[C@@H](O[C@@H]2O[C@H](CO)[C@H](O)[C@H](O)[C@H]2O)[C@@H](O)[C@@H](CO[C@@H]2O[C@H](CO)[C@@H](O[C@@H]3O[C@H](CO)[C@H](O)[C@H](O[C@]4(C(=O)O)C[C@H](O)[C@@H](NC(C)=O)[C@H]([C@H](O)[C@H](O)CO)O4)[C@H]3O)[C@H](O[C@@H]3O[C@@H](C)[C@@H](O)[C@@H](O)[C@@H]3O)[C@H]2NC(C)=O)O[C@@H]1*; Phe(4-CH2SO3H) = N[C@@H](Cc1ccc(CS(=O)(=O)O)cc1)C(=O)O; Mca = COc1ccc2c(CC(=O)*)cc(=O)oc2c1

In assay [1] the target is T1, E-selectin (E-sel-Ig) (Homo sapiens, UniProt P16581).
T1 sequence (P16581 22-610): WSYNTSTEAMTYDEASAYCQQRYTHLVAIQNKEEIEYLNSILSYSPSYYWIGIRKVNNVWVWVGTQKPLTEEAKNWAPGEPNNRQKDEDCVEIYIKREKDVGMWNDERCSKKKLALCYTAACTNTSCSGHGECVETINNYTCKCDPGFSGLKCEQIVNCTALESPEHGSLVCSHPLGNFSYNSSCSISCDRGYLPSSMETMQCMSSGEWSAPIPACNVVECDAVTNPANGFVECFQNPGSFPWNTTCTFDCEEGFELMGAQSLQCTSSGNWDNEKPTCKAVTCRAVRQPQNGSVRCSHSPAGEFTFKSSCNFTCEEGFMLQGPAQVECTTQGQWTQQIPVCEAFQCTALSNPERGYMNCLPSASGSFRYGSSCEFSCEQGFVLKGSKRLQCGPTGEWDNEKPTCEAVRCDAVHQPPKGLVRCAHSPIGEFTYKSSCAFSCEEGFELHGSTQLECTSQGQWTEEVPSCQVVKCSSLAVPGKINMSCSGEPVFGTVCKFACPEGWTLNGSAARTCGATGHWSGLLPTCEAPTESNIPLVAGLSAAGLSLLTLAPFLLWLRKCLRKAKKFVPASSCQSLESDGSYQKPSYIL
As to the kind of experiment: Biacore binding assay, E-selectin. The following applies: compared with P-selectin. Here is the method: (§1) Dissociation constants (Kd) were determined using a Biacore binding assay after initial capture of biotinylated GS(n)P-6 onto streptavidin-coated sensor chips followed by flow through of P-, L- or E-sel-Ig (2.5 to 60 μg/mL). […] The Kd of GSnP-6 to murine P-selectin was ˜9-fold lower than to human P-selectin.
For orientation: In SPR one partner is held on a chip, and binding of the other changes the refractive index at the surface.

Assay [2] deals with T2, human P-selectin (Homo sapiens, UniProt P16109).
T2 sequence (P16109 42-830): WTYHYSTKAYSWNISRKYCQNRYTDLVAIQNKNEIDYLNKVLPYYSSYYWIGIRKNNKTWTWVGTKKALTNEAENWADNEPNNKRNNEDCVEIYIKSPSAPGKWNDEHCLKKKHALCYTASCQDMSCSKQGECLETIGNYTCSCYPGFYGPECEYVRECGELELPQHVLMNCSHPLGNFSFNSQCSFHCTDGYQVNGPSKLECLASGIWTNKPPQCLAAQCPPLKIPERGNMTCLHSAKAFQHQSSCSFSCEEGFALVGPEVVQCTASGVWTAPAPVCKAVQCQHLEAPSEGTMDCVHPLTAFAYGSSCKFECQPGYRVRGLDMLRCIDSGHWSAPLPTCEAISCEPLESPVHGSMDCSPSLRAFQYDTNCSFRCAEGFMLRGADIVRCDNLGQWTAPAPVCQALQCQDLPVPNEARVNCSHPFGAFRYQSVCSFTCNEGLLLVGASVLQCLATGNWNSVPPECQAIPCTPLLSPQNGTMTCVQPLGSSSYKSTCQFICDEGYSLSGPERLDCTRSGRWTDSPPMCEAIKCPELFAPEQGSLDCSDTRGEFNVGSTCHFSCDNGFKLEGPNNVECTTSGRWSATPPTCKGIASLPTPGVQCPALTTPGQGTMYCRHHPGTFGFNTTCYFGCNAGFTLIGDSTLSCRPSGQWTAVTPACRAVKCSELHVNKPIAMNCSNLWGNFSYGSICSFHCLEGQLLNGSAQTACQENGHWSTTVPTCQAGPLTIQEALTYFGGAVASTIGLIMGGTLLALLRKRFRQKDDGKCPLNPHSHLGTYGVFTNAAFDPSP
The assay can be described thus: Biacore binding assay, human P-selectin. The protocol: Bound peptides were detected using Alexa-488 labeled anti-human IgG antibody (5 μg/mL). Three lectins RCA-1, AAL, and PNA were used to confirm the sequence of enzymatic steps. Monoclonal antibodies CHO131, PSG2 antibody and PL-1 were used to confirm the presence of SLex, tyrosine sulfates, and the peptide sequence, respectively. Biacore binding analysis to human P-selectin with observed rate constants for (D) GSnP-6, kon 3.1×10^5 M^−1s^−1, koff 6.9×10^3 M^−1s^−; GSn2P-6, kon6.4×10^5 M^−1s^−1, koff 6.8×10^3 M^−1s. Biacore binding analysis to mouse P-selectin with observed rate constants for (E) GsnP-6, kon 4.9×10^4 M^−1s^−1, koff 8.0×10^3 M^−1s^−; GSn2P-6 kon 5.3×10^4 M^−1s^−1, koff 9.0×10^3 M^−1s. (F) Temperature- and pH-dependent stability studies of GSnP-6.
as §1

For assay [3], the target named is T3, L-selectin (L-sel-Ig) (Homo sapiens, UniProt P14151).
T3 sequence (P14151 39-372): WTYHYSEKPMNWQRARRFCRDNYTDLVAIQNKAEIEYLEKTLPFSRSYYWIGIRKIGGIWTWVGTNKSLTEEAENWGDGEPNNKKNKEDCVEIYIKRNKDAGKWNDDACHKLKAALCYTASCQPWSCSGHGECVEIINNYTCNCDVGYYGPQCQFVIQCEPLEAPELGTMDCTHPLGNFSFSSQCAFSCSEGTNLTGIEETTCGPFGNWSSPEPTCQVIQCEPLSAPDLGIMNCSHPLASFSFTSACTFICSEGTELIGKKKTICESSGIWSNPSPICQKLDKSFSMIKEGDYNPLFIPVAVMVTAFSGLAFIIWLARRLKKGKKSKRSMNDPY
As to the kind of experiment: Biacore binding assay, L-selectin. Conditions: compared with P-selectin. Here is the method: as §1

Assay [4] deals with T4, Recombinant mouse L-selectin Fc chimera (Mus musculus, UniProt P18337).
T4 sequence (P18337 39-372): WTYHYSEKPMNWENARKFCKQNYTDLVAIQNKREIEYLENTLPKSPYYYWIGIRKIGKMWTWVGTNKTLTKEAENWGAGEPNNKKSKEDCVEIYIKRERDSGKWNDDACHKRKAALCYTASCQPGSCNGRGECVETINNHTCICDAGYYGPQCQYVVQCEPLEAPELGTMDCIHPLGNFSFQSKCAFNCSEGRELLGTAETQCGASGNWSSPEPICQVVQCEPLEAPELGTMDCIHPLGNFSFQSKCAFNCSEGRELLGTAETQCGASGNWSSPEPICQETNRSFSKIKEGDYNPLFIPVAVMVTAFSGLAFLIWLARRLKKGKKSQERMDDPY
As to the kind of experiment: Flow cytometry, inhibition of mouse L-selectin Fc chimera binding to murine neutrophils. Type of assay: cell-based. The following applies: chimera 2 μg/mL, read-out: IC50, PSGL-1/L-selectin interactions, murine neutrophils. Here is the method:
Flow cytometry was used to characterize the ability of GSnP-6 to block binding of selectin-IgG chimeras to murine and human leukocytes. Recombinant mouse P- or L-selectin Fc chimera (2 μg/mL) was incubated with murine neutrophils and GSnP-6 (0-30 μM). Likewise, recombinant human P-selectin or L-selectin Fc chimera were incubated with human peripheral blood neutrophils and monocytes, as well as the human U937 cell line in the presence of GSnP-6 (0-30 μM). Binding of selectin-IgG chimeras was detected with PE-conjugated anti-IgG antibody, quantified as mean fluorescent intensity, and plotted as percent inhibition. Specificity was confirmed with selectin-specific blocking antibodies.
(A flow cytometer gives signals particle by particle.)

As a reminder, the koff is the rate constant with which the complex falls apart. A lower koff goes with a long-lived complex. As usually defined, the kon is the second-order rate constant of association. In general, pKd refers to −log10 of the Kd, conventionally taken in molar units. Consider `COc1ccc2c(CC(=O)NCCCC[C@H](N)C(=O)N[C@@H](CCC(=O)O)C(=O)N[C@@H](Cc3ccc(CS(=O)(=O)O)cc3)C(=O)N[C@@H](CCC(=O)O)C(=O)N[C@@H](Cc3ccc(CS(=O)(=O)O)cc3)C(=O)N[C@@H](CC(C)C)C(=O)N[C@@H](CC(=O)O)C(=O)N[C@@H](Cc3ccc(CS(=O)(=O)O)cc3)C(=O)N[C@@H](CC(=O)O)C(=O)N[C@@H](Cc3ccccc3)C(=O)N[C@@H](CC(C)C)C(=O)N3CCC[C@H]3C(=O)N[C@@H](CCC(=O)O)C(=O)N[C@H](C(=O)N[C@@H](CCC(=O)O)C(=O)N3CCC[C@H]3C(=O)N[C@@H](CC(C)C)C(=O)O)[C@@H](C)O[C@H]3O[C@H](CO[C@@H]4O[C@H](CO)[C@@H](O[C@@H]5O[C@H](CO)[C@H](O)[C@H](O[C@]6(C(=O)O)C[C@H](O)[C@@H](NC(C)=O)[C@H]([C@H](O)[C@H](O)CO)O6)[C@H]5O)[C@H](O[C@@H]5O[C@@H](C)[C@@H](O)[C@@H](O)[C@@H]5O)[C@H]4NC(C)=O)[C@H](O)[C@H](O[C@@H]4O[C@H](CO)[C@H](O)[C@H](O)[C@H]4O)[C@H]3NC(C)=O)cc(=O)oc2c1` [GSnP-6] (H-K(Mca)E[Phe(4-CH2SO3H)]E[Phe(4-CH2SO3H)]LD[Phe(4-CH2SO3H)]DFLPET(X1)EPL-OH), for which, in assay [1], the “apparent affinity to E-selectin” value was “even lower apparent affinity”. For the same molecule, in assay [2] (Biacore observed rate constant), the koff was found to be 0.0069 s⁻¹ and the kon was 310000 M⁻¹ s⁻¹. Also, the pKd in assay [2] (biotinylated GS(n)P-6 captured on streptavidin chip, P-sel-Ig 2.5 to 60 μg/mL, read-out: Dissociation constant (Kd) to human P-selectin) was 7.66. Moreover, the “apparent affinity to L-selectin” value in assay [3] is “even lower apparent affinity”. Moreover, the pIC50 in assay [4] was < 4.30.
